Results: patent publication US20090311227A1, “Composition” (Danisco A/S, priority 2006, published 2009)

Key:
[1] = tested on: rats with visceral hypersensitivity induced by the butyrate; test: CRD test, role of CB2 and MOR receptors in NCFM-induced analgesia (antagonists) in butyrate-treated rats; format: in vivo, rat; details: for effect on NCFM-induced analgesia: butyrate-treated rats receiving NCFM 10^9 CFU/day 15 days, antagonist given peritoneally 30 min before CRD (AM630, naloxone methiodide 2 mg/kg); for effect on pain perception in control rats: control rats with butyrate-induced visceral hypersensitivity, no NCFM, AM630 or naloxone methiodide 2 mg/kg, 30 min before CRD
Procedure: (§1) Male Sprague-Dawley rats (Charles River, l'Arbresle, France) weighing 175-200 g were used in this study. Rats were maintained in laboratory conditions for 1 week before experiment. The animals were housed 5 per cage with food and water available ad libitum. All studies were performed in accordance with the proposal of the committee for Research and Ethical Issues of the International Association for the Study of Pain (Zimmermann M, Pain. 1983; 16:109-110). Great care was taken, particularly with regard to housing conditions, to avoid or minimize discomfort to the animals.
For each enema, a catheter (2-mm Fogarty catheter) was placed in the colon at 7 cm from the anus, and the animals received 1 ml of 200 mM of sodium butyrate at neutral pH (pH6.9) twice daily for 3 days. Healthy animals received saline.
Nociception in the animals was assessed by measuring the intracolonic pressure required to induce a behavioral response during colorectal distension (CRD) due to the inflation of a balloon introduced in the colon. This response was characterized by an elevation of the hind part of the animal body and clearly visible abdominal contraction corresponding to the severe contractions (Al Chaer, gastro 2000; Tarrerias, pain 2002; Bourdu et al., 2005). Briefly, rats were anesthetized with volatile anaesthesia (2% isoflurane), the balloon (prepared as previously described in Bourdu & al, 2005) was inserted intrarectally in a minimally invasive manner to 7 cm from the anus, and the catheter was taped to the base of the tail. After 5 minutes, rats were placed in the middle of a 40×40-cm Plexiglas box and the catheter was connected to an electronic barostat apparatus (Synectics Visceral Stimulator; Medtronic, Boulogne-Billancourt, France).
Four groups of animals treated with butyrate were used (n=10/group). Two groups were treated once a day during fifteen days by gastric gavage, 10^9 CFU of NCFM strain and the two other groups of butyrate-treated animals received CarboxyMethyl Cellulose (CMC) by the same route and during the same time. NCFM strain was resuspended in 0.5% CMC (CarboxyMethyl Cellulose, Sigma). Butyrate instillations began 7 days after the first gavage for three days. Colonic hypersensitivity was determined 14 days after the after beginning of oral treatment thus 7 days after colonic instillations. […]
(§2) All experiments were performed in a blind manner by the same experimenter using the block method. Results are expressed as mean±SEM of raw data. Results of CRD testing were analysed using one-way analysis of variance (ANOVA) followed of a Bonferroni post-hoc test to compare several treatments. […]

[2] = tested on: rats with colonic hypersensitivity induced by butyrate; test: CRD test, probiotic co-administered with suboptimal morphine in rats with butyrate-induced colonic hypersensitivity; format: in vivo, rat; details: butyrate-treated rats
Procedure: as §1, with “Pain” for “Pain.”, “animals. […]” for “animals.”
Nociception in the animals was assessed by measuring the intracolonic pressure required to induce a behavioral response during colorectal distension (CRD) due to the inflation of a balloon introduced in the colon. […]
Four groups of animals treated with butyrate were used (n=10/group). […] Colonic hypersensitivity was determined 14 days after the after beginning of oral treatment thus 7 days after colonic instillations. […]
as §2

[3] = tested on: rats with colonic hypersensitivity induced by butyrate enemas; details: rat with visceral hypersensitivity induced by butyrate; known from Bourdu et al; cited from earlier work

Structure (SMILES) | effect on NCFM-induced analgesia [1] | effect on pain perception in control rats [1] | pain threshold ([2]; morphine 0.1 mg/kg subcutaneously alone, 30 min before CRD, mean±SEM) | difference on pain threshold vs rats not receiving morphine ([2]; suboptimal dosage of morphine 0.1 mg/kg) | effect on colonic hypersensitivity in CRD test [3]
COc1ccc(C(=O)c2c(C)n(CCN3CCOCC3)c3cc(I)ccc23)cc1 [AM630] | significantly inhibited | no effect | – | – | –
C=CC[N+]1(C)CC[C@]23c4c5ccc(O)c4O[C@H]2C(=O)CC[C@@]3(O)[C@H]1C5 (stereo partly shown) [NLX, naloxone methiodide] | not | no effect | – | – | –
CN1CC[C@]23c4c5ccc(O)c4O[C@H]2[C@@H](O)C=C[C@H]3[C@H]1C5 [morphine] | – | – | 41.5±2.4 | No difference | dose-dependent decrease
